Assay results: patent EP0986401B1, “P-SELECTIN TRANSLOCATION TO VASCULAR EPITHELIAL LUMEN BY IONIZING RADIATION” (ARCH DEVELOPMENT CORPORATION, priority 1997, dated 1998)
“Also recorded” adds a separate entry of the source. Structures can show the parent of a compound that is named as a salt. Where two headings read alike, the source gives them in different places. Values belong to the compound of their own block, whether it stands above or below them. Starred links: 1 amine or outer side, 2 acyl side, 3 side chain; linkers in the order of their positions; H or OH if unused. Positions of bridges follow the written chain, without caps; N, C: chain ends. Non-standard residues stand in square brackets, D forms with d. Residues, ends and D or L forms follow the SMILES beside them. Chains are numbered I, II in the order given. Actinocin(9to1) = Cc1c2oc3c(C)ccc(C(=O)[*:1])c3nc-2c(C(=O)[*:2])c(N)c1=O; NMeV = CN[C@H](C(=O)O)C(C)C; Nle = CCCC[C@H](N)C(=O)O; Sar = CNCC(=O)O

Legend:
P-selectin [1] = assay: P-selectin translocation in irradiated HUVEC with microtubule or actin agents, confocal immunofluorescence; assay type: cell-based, human; conditions: for x-ray induced translocation of P-selectin: HUVEC pretreated 45 min, staining 60 minutes after x-irradiation (2 Gy); for 8-fold increase in P-selectin immunofluorescence on the cell surface: x-irradiated (2 Gy) HUVEC, confocal microscopy quantified by NIH Image, FIG. 2
selectin = conditions: cited from earlier work; for block selectin binding to sLe^x: in vitro
[2] = Narasinga Rao et al. (1994); cited from earlier work
E-selectin [3] = molecular target: T1, E-selectin (Homo sapiens, UniProt P16581); conditions: Nelson et al. (1993); cited from earlier work
T1 sequence (P16581 22-610): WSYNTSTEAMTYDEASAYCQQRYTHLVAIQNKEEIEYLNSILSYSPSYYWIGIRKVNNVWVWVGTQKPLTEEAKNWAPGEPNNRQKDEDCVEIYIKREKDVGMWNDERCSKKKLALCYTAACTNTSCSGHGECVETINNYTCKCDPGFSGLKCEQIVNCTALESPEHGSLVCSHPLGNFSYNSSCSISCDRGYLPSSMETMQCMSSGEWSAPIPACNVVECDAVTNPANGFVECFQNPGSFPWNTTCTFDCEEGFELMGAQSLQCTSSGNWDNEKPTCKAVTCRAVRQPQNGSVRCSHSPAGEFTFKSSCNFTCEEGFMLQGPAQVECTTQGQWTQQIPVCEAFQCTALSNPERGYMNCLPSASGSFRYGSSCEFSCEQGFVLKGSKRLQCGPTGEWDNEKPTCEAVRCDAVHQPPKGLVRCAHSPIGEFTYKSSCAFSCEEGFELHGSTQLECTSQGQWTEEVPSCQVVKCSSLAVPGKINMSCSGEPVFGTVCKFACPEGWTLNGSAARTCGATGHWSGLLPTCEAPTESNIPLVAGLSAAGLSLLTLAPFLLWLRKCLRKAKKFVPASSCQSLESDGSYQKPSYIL

P-selectin [4] = assay: P-selectin translocation (Weibel-Palade body exocytosis) in irradiated HUVEC with enzyme inhibitors, immunofluorescence; assay type: cell-based, human; conditions: inhibitor added prior to irradiation, 10 Gy
Source text: (§1) The initial step in discerning the potential role of various signal transduction pathways is to add enzyme inhibitors prior to x-radiation. Exocytosis of Weibel-Palade bodies is an active process requiring the translocation of cytoplasmic granules. Previous studies have shown that intracellular signal transduction required for Weibel Palade body translocation involves influx of calcium and protein kinase C activation (calcium, PKC). To determine whether these signaling pathways participate in radiation-mediated Weibel-Palade body exocytosis, the inventors added the intracellular calcium chelator BAPTA and the protein kinase C inhibitor, calphostin, to HUVEC cells prior to irradiation. Cells were then treated with 10 Gy and immunofluorescence was used to localize P-selectin. […] Conversely, the tyrosin kinase inhibitor, herbimycin A, had no effect on Weibel-Palade exocytosis. To determine whether calcium chelation and protein kinase inhibition prevent all molecular responses to ionizing radiation, the inventors' added BAPTA and calphostin prior to radiation-induction of ICAM-1 expression. BAPTA and calphostin had no effect on x-ray induction of ICAM-1. However, herbimycin A and the NFkB inhibitor ALLN attenuated x-ray induction of ICAM-1.

ICAM-1 [5] = assay: X-ray induction of ICAM-1 expression with enzyme inhibitors; assay type: cell-based, human; conditions: inhibitor added prior to irradiation
Source text: as §1

HL60 cells = assay: HL60 leukocyte adhesion to irradiated HUVECs; assay type: cell-based, human; conditions: 1 mM each; added 4 h after 10 Gy and 30 min prior to HL60 cells
Experimental: Human leukemia cell line HL60 has been used to quantify leukocyte adhesion to endothelial cells (Jones et al., 1995). HL60 cells were added to human umbilical vein in endothelial cells (HUVECs) after exposure to 10 Gy or cells treated with otherwise identical conditions without irradiation. Cultures were washed and cells were counted using a hemocytometer. […] Each agent blocked the adherence of HL60 cells to irradiated HUVECs.

[6] = rats, orally; Akao et al. (1994); cited from earlier work
vWF = conditions: disruption of microtubules; cited from earlier work
von Willebrand Factor = conditions: Vischer et al., 1995; cited from earlier work
E-selectin [7] = conditions: Hallahan et al., 1995, 1996; cited from earlier work
ICAM-1 [8] = conditions: Hallahan et al., 1995, 1996; cited from earlier work

Compound: C=C1[C@@H](C)[C@H]2[C@H](Cc3ccccc3)NC(=O)[C@]23OC(=O)/C=C/[C@H](O)CCC[C@@H](C)C/C=C/[C@H]3[C@@H]1O [cytochalasin-B]
x-ray induced translocation of P-selectin (P-selectin [1]): no inhibition
8-fold increase in P-selectin immunofluorescence on the cell surface (P-selectin [1]): not

Compound: C[C@H]1O[C@H](O[C@H]2[C@H](O)[C@@H](O)[C@@H](O)[C@H](O)[C@@H]2O)[C@@H](N)C[C@@H]1NC(=N)C(=O)O [kasugamycin]
block selectin binding to sLe^x (selectin; Narasinga Rao et al. (1994)): effective

Compound: CC1OC(OC2CCC3(C)C(CCC4(C)C3C(=O)C=C3C5CC(C)(C(=O)O)CCC5(C)CCC34C)C2(C)C)C(O)C(O)C1O [L-fucose derivative]
selectin inhibition activity in vitro (selectin; sugars substituted for the glucuronic acids of glycyrrhizin, Narasinga Rao et al. (1994)): most active
in vivo efficacy (anti-inflammatory activity) [2]: most active

Compound: CC1(C)[C@@H](O[C@H]2O[C@H](C(=O)O)[C@@H](O)[C@H](O)[C@H]2O[C@@H]2O[C@H](C(=O)O)[C@@H](O)[C@H](O)[C@H]2O)CC[C@]2(C)[C@H]3C(=O)C=C4[C@@H]5C[C@@](C)(C(=O)O)CC[C@]5(C)CC[C@@]4(C)[C@]3(C)CC[C@@H]12 [glycyrrhizic acid (NH^+4), glycyrrhizic acid]
block selectin binding to sLe^x (selectin; Narasinga Rao et al. (1994)): blocked

Compound: [ring-^14C]Chlorhexidine
block selectin binding to sLe^x (selectin; Narasinga Rao et al. (1994)): effective

Compound: COC(=O)CCCCCCCCO[C@@H]1O[C@H](CO)[C@@H](O[C@@H]2O[C@@H](C)[C@@H](O)[C@@H](O)[C@@H]2O)[C@H](O[C@@H]2O[C@H](CO)[C@H](O)[C@H](O[C@]3(C(=O)O)C[C@H](O)[C@@H](NC(C)=O)[C@H]([C@H](O)[C@H](O)CO)O3)[C@H]2O)[C@H]1N [amino substituted sLe^a]
IC50 (E-selectin [3]): 21 ± 3 µM
more active than the reducing tetrasaccharide sLe^x (E-selectin [3]): 36 fold

Compound: Cc1c(C(=O)O)c(O)cc2c1C(=O)c1c(O)c([C@H]3O[C@H](CO)[C@@H](O)[C@H](O)[C@H]3O)c(O)c(O)c1C2=O [carmine]
block selectin binding to sLe^x (selectin; Narasinga Rao et al. (1994)): effective

Compound: CC(=O)Nc1c(I)c(C(=O)O)c(I)c(N(C)C(C)=O)c1I [metrizoic acid (meglumine salt), metrizoic acid]
block selectin binding to sLe^x (selectin; Narasinga Rao et al. (1994)): effective

Compound: C[C@@H]1O[C@@H](O[C@H]2[C@H](O[C@H]3CC[C@@]4(C)[C@@H](CC[C@]5(C)[C@@H]4CC=C4[C@@H]6CC(C)(C)CC[C@]6(C(=O)O)CC[C@]45C)[C@]3(C)CO)OC[C@H](O)[C@@H]2O)[C@H](O)[C@H](O)[C@H]1O [α-Hederin]
inhibiting concentrations (selectin; selectin binding to sLe^x, Narasinga Rao et al. (1994)): 2 to 3 mM

Compound: CO[C@H]1[C@@H](OC)C[C@H](C)[C@@H](OC)C2=CC(=O)C=C(NC(=O)/C(C)=C/C=C\[C@H](OC)[C@@H](OC(N)=O)/C(C)=C/[C@@H]1C)C2=O [herbimycin A]
P-selectin translocation to the cell membrane (Weibel-Palade exocytosis) (P-selectin [4]): no effect
x-ray induction of ICAM-1 (ICAM-1 [5]): attenuated

Compound: escin
block selectin binding to sLe^x (selectin; Narasinga Rao et al. (1994)): effective

Compound: CCCC[C@@H](C=O)NC(=O)[C@H](CC(C)C)NC(=O)[C@H](CC(C)C)NC(C)=O [ALLN] (Ac-Leu-Leu-[Nle]-aldehyde)
x-ray induction of ICAM-1 (ICAM-1 [5]): attenuated

Compound: O=C(O)[C@H]1O[C@H](O[C@@H]2[C@H](O)[C@@H](O)[C@@H](O[C@@H]3[C@H](O)[C@@H](O)C(O)O[C@@H]3C(=O)O)O[C@@H]2C(=O)O)[C@H](O)[C@@H](O)[C@H]1O (some centres unmarked) [trigalacturonic acid]
block selectin binding to sLe^x (selectin; Narasinga Rao et al. (1994)): effective

Compound: picrocarmine
block selectin binding to sLe^x (selectin; Narasinga Rao et al. (1994)): effective

Compound: CC1(C)[C@@H](O[C@H]2O[C@H](C(=O)O)[C@@H](O)[C@H](O)[C@H]2O[C@@H]2O[C@H](C(=O)O)[C@@H](O)[C@H](O)[C@H]2O)CC[C@]2(C)[C@H]3C(=O)C=C4[C@@H]5C[C@@](C)(C(=O)O)CC[C@]5(C)CC[C@@]4(C)[C@]3(C)CC[C@@H]12 [Glycyrrhizin]
block selectin binding to sLe^x (selectin; Narasinga Rao et al. (1994)): block
block selectin binding to sLe^x (selectin; Narasinga Rao et al. (1994), listed as glycyrrhizin): blocked
adherence of HL60 cells to irradiated HUVECs (HL60 cells): blocked
absorption from the gut [6]: poorly absorbed

Compound: COC(=O)Nc1nc2cc(C(=O)c3cccs3)ccc2[nH]1 [nocodozol]
x-ray induced translocation of P-selectin (P-selectin [1]): inhibited
8-fold increase in P-selectin immunofluorescence on the cell surface (P-selectin [1]): abrogated

Compound: CC(C)C[C@H](NP(=O)(O)O[C@@H]1O[C@@H](C)[C@H](O)[C@@H](O)[C@H]1O)C(=O)N[C@@H](Cc1c[nH]c2ccccc12)C(=O)[O-].CC(C)C[C@H](NP(=O)(O)O[C@@H]1O[C@@H](C)[C@H](O)[C@@H](O)[C@H]1O)C(=O)N[C@@H](Cc1c[nH]c2ccccc12)C(=O)[O-].[Na+].[Na+] [N-(α-Rhamnopyranosyloxy hydroxyphosphonyl)- Leu-Trp]
block selectin binding to sLe^x (selectin; Narasinga Rao et al. (1994)): effective

Compound: Neu5Acα2-3Galβ1-4 [Fucα1-3]GlcNAc [sialyl Lewis X]
adherence of HL60 cells to irradiated HUVECs (HL60 cells): blocked

Compound: C[C@H]1O[C@H](OC2[C@@H](O)[C@@H](O)C(O)[C@H](O)[C@H]2O)[C@@H](N)C[C@@H]1N=C(N)C(=O)O.Cl (some centres unmarked) [kasugamycin hydrochloride]
block selectin binding to sLe^x (selectin; Narasinga Rao et al. (1994)): effective

Compound: CC1(C)[C@@H](O)CC[C@]2(C)[C@H]3C(=O)C=C4[C@@H]5C[C@@](C)(C(=O)O)CC[C@]5(C)CC[C@@]4(C)[C@]3(C)CC[C@@H]12 [18-β-glycyrrhetinic acid]
IC50 (selectin; Narasinga-Rao et al. (1994), read-out: IC50 blocking selectin activity): > 2 mM

Compound: Cc1c(C(=O)O)c(O)cc2c1C(=O)c1c(O)c([C@@H]3O[C@H](CO)[C@@H](O)[C@H](O)[C@H]3O)c(O)c(O)c1C2=O [carminic acid]
block selectin binding to sLe^x (selectin; Narasinga Rao et al. (1994)): blocked selectin binding at concentrations comparable to those of glycyrrhizin
adherence of HL60 cells to irradiated HUVECs (HL60 cells): blocked

Compound: carmine ammonia
block selectin binding to sLe^x (selectin; Narasinga Rao et al. (1994)): effective

Compound: COc1cc2c(c(OC)c1OC)-c1ccc(OC)c(=O)cc1[C@@H](NC(C)=O)CC2 [colchicine]
vWF secretion from thrombin-treated endothelial cells (vWF): attenuates

Compound: O=C(O)c1cc(O)c2c(c1)C(=O)c1cccc(O[C@@H]3O[C@H](CO)[C@@H](O)[C@H](O)[C@H]3O)c1C2=O [rhein-8-glucoside]
block selectin binding to sLe^x (selectin; Narasinga Rao et al. (1994)): effective

x-ray induction of ICAM-1 (ICAM-1 [5]): no effect
Compound: calphostin
P-selectin translocation to the cell membrane (Weibel-Palade exocytosis) (P-selectin [4]): attenuation; also recorded: attenuates

Compound: CC(=O)Nc1c(I)c(NC(C)=O)c(I)c(C(=O)O)c1I.CNC[C@H](O)[C@@H](O)[C@H](O)[C@H](O)CO [meglumine diatrizoate]
block selectin binding to sLe^x (selectin; Narasinga Rao et al. (1994)): effective

x-ray induction of ICAM-1 (ICAM-1 [5]): no effect
Compound: O=C(O)CN(CC(=O)O)c1ccccc1OCCOc1ccccc1N(CC(=O)O)CC(=O)O [BAPTA]
P-selectin translocation to the cell membrane (Weibel-Palade exocytosis) (P-selectin [4]): attenuation
superoxide induced von Willebrand Factor exocytosis (von Willebrand Factor): inhibited

Compound: Cc1c2oc3c(C)ccc(C(=O)N[C@@H]4C(=O)N[C@H](C(C)C)C(=O)N5CCC[C@H]5C(=O)N(C)CC(=O)N(C)[C@@H](C(C)C)C(=O)O[C@@H]4C)c3nc-2c(C(=O)N[C@@H]2C(=O)N[C@H](C(C)C)C(=O)N3CCC[C@H]3C(=O)N(C)CC(=O)N(C)[C@@H](C(C)C)C(=O)O[C@@H]2C)c(N)c1=O [actinomycin D] (I: T[dV]P[Sar][NMeV] / II: T[dV]P[Sar][NMeV]; ester I:1-I:C, II:1-II:C; linker I:N-II:N via Actinocin(9to1))
radiation-mediated increase in E-selectin mRNA expression (E-selectin [7]): blocked
radiation-mediated increase in ICAM-1 mRNA expression (ICAM-1 [8]): blocked
